Results published in the NIST ThermoML archive (doi:10.1007/s10765-005-8590-7).
± gives the expanded uncertainty stated by the source.

Assay: xn = mol fraction of the nth substance listed
Conditions: Fluid (supercritical or subcritical phases), Constant-volume piezometry

N [ammonia] + O
Conditions	mass density [kg/m3]
275.15 K, 5862 kPa, x1 = 0.0955	967.89 ± 0.22
275.15 K, 7362.2 kPa, x1 = 0.0513	984.54 ± 0.23
275.15 K, 8702.8 kPa, x1 = 0.064	979.9 ± 0.24
275.16 K, 16098 kPa, x1 = 0.047	989.39 ± 0.26
275.23 K, 5541.3 kPa, x1 = 0.0644	979.5 ± 0.23
276.15 K, 5893.5 kPa, x1 = 0.0999	970.55 ± 0.25
277.08 K, 8983.2 kPa, x1 = 0.1386	954.88 ± 0.23
277.14 K, 5409.4 kPa, x1 = 0.1086	963.03 ± 0.23
277.14 K, 9054.1 kPa, x1 = 0.064	979.8 ± 0.24
277.14 K, 16926 kPa, x1 = 0.0606	986.49 ± 0.26
277.15 K, 3335.7 kPa, x1 = 0.014	995.99 ± 0.23
277.15 K, 4008 kPa, x1 = 0.0302	990.84 ± 0.23
277.15 K, 5289 kPa, x1 = 0.1436	951.66 ± 0.22
277.15 K, 7604.3 kPa, x1 = 0.0513	984.44 ± 0.23
277.18 K, 953.2 kPa, x1 = 0.0591	975.15 ± 0.22
277.2 K, 5773.5 kPa, x1 = 0.0644	979.4 ± 0.23
277.21 K, 6487 kPa, x1 = 0.0955	967.76 ± 0.23
279.08 K, 6161.2 kPa, x1 = 0.0644	979.29 ± 0.23
279.11 K, 10157 kPa, x1 = 0.1386	954.73 ± 0.23
279.12 K, 6995.3 kPa, x1 = 0.0999	970.36 ± 0.25
279.12 K, 7195.5 kPa, x1 = 0.0955	967.64 ± 0.25
279.14 K, 3259.7 kPa, x1 = 0.0582	979.2 ± 0.22
279.15 K, 3348.5 kPa, x1 = 0.014	995.9 ± 0.23
279.15 K, 4150.8 kPa, x1 = 0.0302	990.74 ± 0.23
279.15 K, 6475.7 kPa, x1 = 0.1436	951.51 ± 0.22
279.15 K, 7945.5 kPa, x1 = 0.0513	984.33 ± 0.24
279.17 K, 9525.4 kPa, x1 = 0.064	979.68 ± 0.24
280.14 K, 6718.7 kPa, x1 = 0.1086	962.82 ± 0.23
281.08 K, 7983 kPa, x1 = 0.0955	967.51 ± 0.23
281.11 K, 11383 kPa, x1 = 0.1386	954.58 ± 0.23
281.13 K, 10065 kPa, x1 = 0.064	979.57 ± 0.24
281.14 K, 6677.8 kPa, x1 = 0.0644	979.17 ± 0.23
281.15 K, 3472.7 kPa, x1 = 0.014	995.8 ± 0.23
281.15 K, 4392.5 kPa, x1 = 0.0302	990.64 ± 0.23
281.15 K, 8371.2 kPa, x1 = 0.0513	984.22 ± 0.24
281.19 K, 10108 kPa, x1 = 0.064	979.56 ± 0.24
281.22 K, 1795.9 kPa, x1 = 0.0591	974.91 ± 0.22
282.15 K, 8409.8 kPa, x1 = 0.1436	951.28 ± 0.23
282.16 K, 8309.2 kPa, x1 = 0.0999	970.16 ± 0.29
282.8 K, 8732.9 kPa, x1 = 0.0955	967.39 ± 0.23
283.12 K, 4275.1 kPa, x1 = 0.0582	978.96 ± 0.23
283.13 K, 12686 kPa, x1 = 0.1386	954.43 ± 0.25
283.14 K, 8193.3 kPa, x1 = 0.1086	962.61 ± 0.23
283.15 K, 3692.3 kPa, x1 = 0.014	995.7 ± 0.23
283.15 K, 4731.8 kPa, x1 = 0.0302	990.53 ± 0.23
283.15 K, 8198.4 kPa, x1 = 0.1086	962.61 ± 0.23
283.15 K, 8879.5 kPa, x1 = 0.0513	984.1 ± 0.24
283.15 K, 10706 kPa, x1 = 0.064	979.44 ± 0.25
283.17 K, 7273.4 kPa, x1 = 0.0644	979.05 ± 0.24
285.09 K, 7901.4 kPa, x1 = 0.0644	978.93 ± 0.24
285.15 K, 4011.8 kPa, x1 = 0.014	995.59 ± 0.23
285.15 K, 5171.1 kPa, x1 = 0.0302	990.41 ± 0.23
285.15 K, 9527 kPa, x1 = 0.0513	983.98 ± 0.24
285.15 K, 10464 kPa, x1 = 0.1436	951.05 ± 0.24
285.15 K, 10466 kPa, x1 = 0.1436	951.05 ± 0.24
285.16 K, 11435 kPa, x1 = 0.064	979.32 ± 0.25
285.17 K, 2999.7 kPa, x1 = 0.0591	974.66 ± 0.23
285.17 K, 14062 kPa, x1 = 0.1436	954.28 ± 0.25
286.14 K, 9868.4 kPa, x1 = 0.1086	962.4 ± 0.24
287.06 K, 10858 kPa, x1 = 0.0955	967.09 ± 0.24
287.13 K, 5735.3 kPa, x1 = 0.0582	978.69 ± 0.23
287.13 K, 12206 kPa, x1 = 0.064	979.19 ± 0.25
287.15 K, 4434.3 kPa, x1 = 0.014	995.47 ± 0.24
287.15 K, 10223 kPa, x1 = 0.0513	983.85 ± 0.24
287.17 K, 8642.4 kPa, x1 = 0.0644	978.79 ± 0.24
288.13 K, 11389 kPa, x1 = 0.0999	969.74 ± 0.24
288.14 K, 11389 kPa, x1 = 0.0999	969.74 ± 0.24
288.15 K, 12628 kPa, x1 = 0.1436	950.81 ± 0.25
289.04 K, 4499.1 kPa, x1 = 0.0591	974.4 ± 0.23
289.14 K, 6552.7 kPa, x1 = 0.0582	978.56 ± 0.24
289.15 K, 4946.6 kPa, x1 = 0.014	995.35 ± 0.24
289.15 K, 6317.7 kPa, x1 = 0.0302	990.16 ± 0.24
289.15 K, 11020 kPa, x1 = 0.0513	983.72 ± 0.25
289.15 K, 11640 kPa, x1 = 0.1386	962.18 ± 0.26
289.15 K, 13114 kPa, x1 = 0.064	979.06 ± 0.26
289.21 K, 9475.8 kPa, x1 = 0.0644	978.66 ± 0.24
291.12 K, 10278 kPa, x1 = 0.0644	978.53 ± 0.25
291.13 K, 7445.3 kPa, x1 = 0.0582	978.41 ± 0.24
291.13 K, 13172 kPa, x1 = 0.0999	969.52 ± 0.28
291.15 K, 5561.2 kPa, x1 = 0.014	995.22 ± 0.24
291.15 K, 11884 kPa, x1 = 0.0513	983.58 ± 0.25
291.15 K, 14080 kPa, x1 = 0.064	978.92 ± 0.26
291.16 K, 13203 kPa, x1 = 0.0955	966.79 ± 0.28
292.14 K, 7407.7 kPa, x1 = 0.0302	989.96 ± 0.24
292.15 K, 7429.1 kPa, x1 = 0.0302	989.96 ± 0.24
293.12 K, 14421 kPa, x1 = 0.0955	966.65 ± 0.26
293.13 K, 11186 kPa, x1 = 0.0644	978.39 ± 0.24
293.14 K, 8423.6 kPa, x1 = 0.0582	978.27 ± 0.25
293.15 K, 6247.6 kPa, x1 = 0.014	995.09 ± 0.25
293.16 K, 15112 kPa, x1 = 0.064	978.78 ± 0.27
293.22 K, 6453.9 kPa, x1 = 0.0591	974.1 ± 0.24
294.15 K, 15125 kPa, x1 = 0.0999	969.3 ± 0.26
295.11 K, 8696.2 kPa, x1 = 0.0302	989.75 ± 0.25
295.12 K, 9437.2 kPa, x1 = 0.0582	978.12 ± 0.25
295.15 K, 7035 kPa, x1 = 0.014	994.95 ± 0.24
295.15 K, 12162 kPa, x1 = 0.0644	978.25 ± 0.25
295.15 K, 13851 kPa, x1 = 0.0513	983.31 ± 0.26
297.15 K, 7909.9 kPa, x1 = 0.014	994.81 ± 0.25
297.15 K, 10576 kPa, x1 = 0.0582	977.97 ± 0.26
297.21 K, 13180 kPa, x1 = 0.0644	978.11 ± 0.26
297.22 K, 8637.1 kPa, x1 = 0.0591	973.79 ± 0.25
298.16 K, 10232 kPa, x1 = 0.0302	989.53 ± 0.26
299.08 K, 11729 kPa, x1 = 0.0582	977.83 ± 0.26
299.15 K, 8841.2 kPa, x1 = 0.014	994.66 ± 0.26
299.19 K, 14184 kPa, x1 = 0.0644	977.97 ± 0.26
301.02 K, 10950 kPa, x1 = 0.0591	973.5 ± 0.26
301.11 K, 15142 kPa, x1 = 0.0644	977.84 ± 0.27
301.15 K, 9880.3 kPa, x1 = 0.014	994.51 ± 0.26
303.15 K, 10919 kPa, x1 = 0.014	994.37 ± 0.27
303.2 K, 14357 kPa, x1 = 0.0582	977.51 ± 0.27
305.11 K, 13746 kPa, x1 = 0.0591	973.17 ± 0.28
305.15 K, 12107 kPa, x1 = 0.014	994.21 ± 0.27
305.21 K, 15774 kPa, x1 = 0.0582	977.35 ± 0.28
309.15 K, 14684 kPa, x1 = 0.014	993.9 ± 0.28
